Reference: patent publication US8889671B2, “Compounds and methods for treating bacterial infections” (AstraZeneca AB, priority 2013, dated 2014)
Converted amounts (≈) assume the structure as drawn.

Tests used:
[1] = Plasma pharmacokinetics in S. aureus infected mice; format: in vivo, mouse; details: intraperitoneal, mice with ABT
Method: Groups of satellite mice infected with S. aureus were used for determining plasma concentrations. Dosing started 2 hours after infection and whole blood samples were taken at time points 0.5, 1, 2, 4, 6, 8, 12 and 24 h by submandibular bleed or by cardiac puncture following carbon dioxide asphyxiation and cervical dislocation. Whole blood was sampled into microcontainer tubes containing ethylenediamine tetraacetic acid (EDTA) (Beckton Dickenson). Three mice per time point were used. Plasma was separated by centrifugation for five minutes at 13200 rpm and stored at −20° C. until bioanalysis.
Biological samples containing Example 5 were extracted using protein precipitation. To one volume of sample, 5 volumes of acetonitrile containing the internal standard (Glyburide) were added. […] A Sciex API 4000, controlled by Analyst v1.4.2, was used for the acquisition of the data and the quantification of Example 5.
The plasma profile for each dose group was obtained by calculating the average plasma concentration of compound in each of the three animals per time point. The area under the plasma concentration time curve from zero to infinity (AUC); maximum plasma drug concentration (Cmax); time to reach maximum concentration (tmax); and plasma half-life (t1/2) for each dose group was determined by non-compartmental analysis (WinNonLin 5.2, Pharsight). […]

[2] = tested on: Prevotella melaninogenica; assay: In vitro antibacterial activity of Example 5 against anaerobes (MIC, agar dilution); format: cell-based

Structure (SMILES): C[C@@H]1CN2c3c(cc4c(N5C(=O)OC[C@@H]5C)noc4c3F)CC3(C(=O)NC(=O)NC3=O)[C@H]2[C@H](C)O1 [Example 5, (2R,4S,4aS)-11-Fluoro-2,4-dimethyl-8-[(4S)-4-methyl-2-oxo-1,3-oxazolidin-3-yl]-1,2,4,4a-tetrahydro-2′H,6H-spiro[1,4-oxazino[4,3-a][1,2]oxazolo[4,5-g]quinoline-5,5′-pyrimidine]-2′,4′,6′(1′H,3′H)-trione]
- pharmacokinetics over the dosing range [1]: nonlinear pharmacokinetics
- time of maximum concentration post-administration [1]: 0.5 h
- MIC [2]: 0.25 µg/mL (≈ 0.513 µM)
